Experiment [1] has as its system foxtail, green. The experiment can be described thus: Test C preemergence. The experiment is classed as in vivo, Setaria viridis. The text has this: (§1) Seeds of plant species selected from blackgrass (Alopecurus myosuroides), ryegrass, Italian (Italian ryegrass, Lolium multiflorum), wheat (winter wheat, Triticum aestivum), galium (catchweed bedstraw, Galium aparine), corn (Zea mays), crabgrass, large (large crabgrass, Digitaria sanguinalis), foxtail, giant (giant foxtail, Setaria faberii), johnsongrass (Sorghum halepense), lambsquarters (Chenopodium album), morningglory (Ipomoea coccinea), nutsedge, yellow (yellow nutsedge, Cyperus esculentus), pigweed (redroot pigweed, Amaranthus retroflexus), ragweed (common ragweed, Ambrosia elation), soybean (Glycine max), barnyardgrass (Echinochloa crus-galli), oilseed rape (Brassica napus), waterhemp (common waterhemp, Amaranthus rudis), oat, wild (wild oat, Avena fatua), kochia (Kochia scoparia), Surinam grass (Brachiaria decumbens), foxtail, green (green foxtail, Setaria viridis), goosegrass (Eleusine indica), bromegrass, downy (downy bromegrass, Bromus tectorum), nightshade (eastern black nightshade, Solanum ptycanthum), cocklebur (common cocklebur, Xanthium strumarium), cupgrass, woolly (woolly cupgrass, Eriochloa villosa), bermudagrass (Cynodon dactylon), sunflower, (common oilseed sunflower, Helianthus annuus), Russian thistle (Salsola kali), and velvetleaf (Abutilon theophrasti) were planted into a blend of loam soil and sand and treated preemergence with test chemicals formulated in a non-phytotoxic solvent mixture which included a surfactant.
(§2) At the same time, plants selected from these crop and weed species and also chickweed (common chickweed, Stellaria media), canarygrass (littleseed canarygrass, Phalaris minor), and deadnettle (henbit deadnettle, Lamium amplexicaule), were planted in pots containing Redi-Earth® planting medium (Scotts Company, 14111 Scottslawn Road, Marysville, Ohio 43041) comprising spaghnum peat moss, vermiculite, wetting agent and starter nutrients and treated with postemergence applications of test chemicals formulated in the same manner. Plants ranged in height from 2 to 18 cm (1- to 4-leaf stage) for postemergence treatments. Treated plants and controls were maintained in a greenhouse for 13 to 15 days, after which time all species were compared to controls and visually evaluated. Plant response ratings, summarized in Table C, are based on a scale of 0 to 100 where 0 is no effect and 100 is complete control. A dash (-) response means no test result.

The subject of experiment [2] is cupgrass, woolly. As to the kind of experiment: Test C preemergence. The experiment is classed as in vivo, Eriochloa villosa.
Description: as §1, §2

Where [3] appears, read: preemergence, 31 g ai/ha, scale 0 to 100 (0 no effect, 100 complete control), 13 to 15 days.
Where [4] appears, read: preemergence, 62 g ai/ha, 13 to 15 days, scale 0 to 100, 0 = no effect, 100 = complete control.
Where [5] appears, read: preemergence, 125 g ai/ha, scale 0 to 100, 0 is no effect, 100 is complete control.

This note sets out measurements from patent US20150105252A1, “SUBSTITUTED PYRAZOLES AS HERBICIDES” (E I DU PONT DE NEMOURS AND COMPANY, priority 2013, published 2015).

Consider `CCONC(=O)c1cc(CC)n(Cc2cccc(OC(F)(F)F)c2)n1` [Compound 72], for which the “Plant response rating (scale of 0 to 100), Foxtail, Green” value in experiment [1] (Preemergence, 250 g ai/ha) is 98. Further, the “Foxtail, Green plant response rating” value in experiment [1] (setting [3]) is recorded as 30; in experiment [1] (setting [5]), 90. For the same compound, the “Plant response rating, Foxtail, Green” value in experiment [1] (setting [4]) was 85. Further, the “Plant response rating (scale of 0 to 100), Cupgrass, Woolly” value in experiment [2] (Preemergence, 250 g ai/ha) turned out to be 65. Besides, the “Cupgrass, Woolly plant response rating” value in experiment [2] (setting [3]) was found to be 10; in experiment [2] (setting [5]), 45. For the same compound, in experiment [2] (setting [4]), the “Plant response rating, Cupgrass, Woolly” value turned out to be 45.
